Assay results published in PMC12676205, “New Se‐Compounds With Antileishmanial, Antitumor, and Carbonic Anhydrase Inhibitory Properties” (Archiv Der Pharmazie, 2025).
Where two headings read alike, the source gives them in different places.

Assays:
Ovarian subpanel = assay: NCI-60 five-dose assay, ovarian subpanel; type: cell-based; conditions: Homo sapiens, 48 h; for GI50: read-out: Mean GI50 Ovarian; for LC50 (50% lethal concentration): read-out: Mean LC50 Ovarian
Method: (§1) All the compounds were selected for further testing since they fulfilled the set NCI one‐dose screening parameters for threshold inhibition. They were tested at five different concentrations (0.01, 0.1, 1, 10, and 100 μM) for 48 h against the same cell line panel and the dose–response curves along with three response parameters (50% growth inhibitory concentration [GI50], the 50% lethal concentration [LC50], and the total growth inhibition [TGI]) were calculated for every cancer cell line. The full reported data and corresponding graphs are compiled in Supporting Information S1. Average values of GI50, TGI, and LC50 values of all the reported selenoesters in all the subpanels are represented in Figure 4.
(§2) All the reported selenoesters (1–6) were submitted to the DTP of NCI. First, they were screened at a single dose (10^−5 M) against a panel of 60 cancer cell lines derived from different tumor types following the methodology available (https://dtp.cancer.gov/discovery_development/nci-60/methodology.htm). As all the compounds satisfied the threshold inhibition criteria established, they were further assessed at five concentrations (0.01, 0.1, 1, 10, and 100 µM) against the same cell panel to obtain their corresponding dose–response curves and three antitumor parameters (GI50, TGI, and LC50) by regression. GraphPad Prism 7.0 Software was used to represent the corresponding graphs.

[1] = test system: NCI‐60 human cancer cell lines; assay: NCI-60 one-dose screen, whole panel; type: cell-based; conditions: 10 µM, 48 h, whole NCI-60 panel
Method: (§3) To explore the potential antiproliferative properties of the newly synthesized derivatives, they were submitted to the National Cancer Institute's (NCI) Developmental Therapeutics Program (DTP) for screening at 10 μM in a panel of approximately 60 human cancer cell lines from different cancer types. The results are reported as the growth percentage (GP), which is the growth of the treated cells with each compound for 48 h compared to the untreated controls (Figure 2). […] The initial screening results are summarized in Figure 2, and the mean GP values of each subpanel are depicted in Figure 3. The full reports are compiled in the Supplementary Section.
as §2

hCA II = target: T1, hCA II (Homo sapiens, UniProt P00918); assay: hCA II inhibition, stopped-flow CO2 hydration assay; type: biochemical; conditions: stopped flow technique, mean from three assays
T1 construct: made in house
Method: An Applied Photophysics stopped‐flow instrument was used to assay the CA‐catalyzed CO2 hydration activity [52]. […] The uncatalyzed rates were determined in the same manner and subtracted from the total observed rates. Stock solutions of the inhibitor (0.1 mM) were prepared in distilled–deionized water, and dilutions up to 0.01 nM were done thereafter with the assay buffer. Inhibitor and enzyme solutions were preincubated together for 15 min at room temperature before the assay, to allow for the formation of the E–I complex. The inhibition constants were obtained by Nonlinear least‐squares methods using PRISM 3 and the Cheng‐Prusoff equation as reported earlier and represent the mean from at least three different determinations. All CA isoforms were recombinant proteins obtained in‐house, as reported earlier [54, 55, 56].

Colon subpanel [2] = assay: NCI-60 five-dose assay, colon subpanel; type: cell-based; conditions: Homo sapiens, 48 h; for GI50: read-out: Mean GI50 Colon; for CC50: read-out: Mean LC50 Colon
Method: as §1, §2

Prostate subpanel [3] = assay: NCI-60 five-dose assay, prostate subpanel; type: cell-based, human; conditions: 48 h; for GI50 / CC50: Homo sapiens; for GI50: read-out: Mean GI50 Prostate; for CC50: read-out: Mean LC50 Prostate
Method: as §1, §2

Prostate subpanel [4] = assay: NCI-60 one-dose screen, prostate subpanel; type: cell-based, human; conditions: 10 µM, 48 h
Method: as §3, §2

Breast subpanel = assay: NCI-60 one-dose screen, breast subpanel; type: cell-based, human; conditions: 10 µM, 48 h
Method: as §3, §2

Colon subpanel [5] = assay: NCI-60 one-dose screen, colon subpanel; type: cell-based, human; conditions: 10 µM, 48 h
Method: as §3, §2

Leukemia subpanel = assay: NCI-60 one-dose screen, leukemia subpanel; type: cell-based, human; conditions: 10 µM, 48 h
Method: as §3, §2

[6] = test system: NCI‐60 human cancer cell lines; assay: NCI-60 five-dose assay, whole panel; type: cell-based; conditions: 48 h, bound for every subpanel
Method: as §1, §2

[7] = test system: L. infantum promastigotes; assay: Leishmanicidal activity against promastigotes (MTT), L. infantum; type: cell-based, Leishmania infantum
Method: (§4) The synthesized compounds were tested for their antileishmanial activity against promastigotes of L. major and L. infantum at four concentrations (1, 10, 50, and 100 µM) for 48 h using the 3‐(4,5‐dimethylthiazol‐2‐yl)‐2,5‐diphenyltetrazolium bromide (MTT) assay. In this evaluation, the activity was expressed in IC50 (concentration inhibiting the parasite growth by 50%). […] The CC50 was defined as the concentration of selenoesters that led to a reduction in the viability of the macrophages, such that only 50% of the cells survived when compared to the control group. This cell line, derived from the blood of a human with acute monocytic leukemia, was chosen as it has been widely reported that it resembles tissue macrophages to various extents as well as supports the infection by numerous Leishmania promastigotes. The selectivity indexes (SIs) were calculated as the ratio between toxicity on macrophages (THP‐1 cells)/antileishmanial activity. The data for standard control drugs (miltefosine and paromomycin) are included for comparison purposes.
The promastigotes of L. major (clone VI, MHOM/IL/80/Friendlin) and L. infantum (BCN‐150) were grown at 26°C under continuous shaking in M199 1× medium (Sigma, USA). This media was supplemented with 10% of heat‐inactivated fetal bovine serum (FBS) (Gibco, USA), 0.0005% (w/v) hemin, 0.1 mM adenine, 25 mM HEPES (pH 7.2), 0.0001% (w/v) biotin, and 100 UI/mL penicillin and […] streptomycin (Gibco, USA).
The antileishmanial activity of the reported selenoesters was determined using the MTT assay as previously described during the logarithmic growth phase of the tested promastigotes of L. major and L. infantum. Briefly, the Leishmania parasites were seeded into 96‐well flat‐bottom plates (3 × 10^5 parasites/100 µL) and treated with four different concentrations ranging between 1 and 100 µM of each selenoester at 26°C for 48 h. Afterwards, 20 µL of MTT (5 mg/mL in PBS) was added to each well and incubated for 4 h under the same conditions. Then, 80 µL/well of DMSO was added to dissolve the resultant formazan crystals. The absorbances were determined on a Multiskan EX photometric plate reader for microplates at 540 nm. Three independent experiments performed in triplicate were carried out for each compound, and OriginPro 8.5.1 Software was used to calculate the IC50 values by fitting the data to a dose–inhibition sigmoid curve.

Melanoma subpanel = assay: NCI-60 one-dose screen, melanoma subpanel; type: cell-based, human; conditions: 10 µM, 48 h
Method: as §3, §2

[8] = THP-1 cytotoxicity (MTT, PMA-differentiated macrophages); type: cell-based, human; conditions: human, THP-1 cells differentiated into macrophages with PMA, mean ± SD
Method: as §4
THP‐1 cells were seeded at a concentration of 8 × 10^4 cells per well in 96‐well plates and incubated with phorbol 12‐myristate 13‐acetate (PMA) (50 ng/mL) for 72 h (37°C and 5% CO2) to differentiate them into macrophages. After that, the culture medium was removed and the cells were treated with the reported selenoesters at different increasing concentrations ranging from 1 to 200 µM for 48 h at 37°C and 5% of CO2. Macrophages treated with DMSO (1%) were used as controls, and the compounds were dissolved in DMSO at a stock concentration of 10^−2 M. Afterward, the MTT assay was performed. Data were obtained from three independent experiments performed in triplicate. The absorbance was measured at 550 nm using a MultiskanEX photometric plate reader for microplates. The CC50 values were calculated using OriginPro 8.5.1. software by nonlinear curve fitting. SIs were calculated as the ratio of the CC50 values determined for the macrophages and the IC50 values obtained in each Leishmania promastigote. GraphPad Prism 7.0 Software was used to obtain the corresponding graphs.

[9] = Leishmania infantum, 48 h, mean ± SD, read-out: L. infantum IC50
[10] = 48 h, mean ± SD, read-out: L. infantum IC50
[11] = read-out: L. infantum IC50, 48 h, mean ± SD

Row | SMILES | GI50 (Ovarian subpanel) [µM] | LC50 (50% lethal concentration) (Ovarian subpanel) [µM] | mean GP (growth percentage) [1] [%] | Ki (hCA II) [µM] | GI50 (Colon subpanel [2]) [µM] | CC50 (Colon subpanel [2]) [µM] | GI50 (Prostate subpanel [3]) [µM] | CC50 (Prostate subpanel [3]) [µM] | average growth cell value, Prostate (Prostate subpanel [4]) [%] | average growth cell value, Breast (Breast subpanel) [%] | average growth cell value, Colon (Colon subpanel [5]) [%] | average growth cell value, Leukemia (Leukemia subpanel) [%] | mean TGI values against all the subpanels tested [6] | IC50 [7, 9] [µM] | average growth cell value, Melanoma (Melanoma subpanel) [%] | CC50 at 48 h [8] [µM] | IC50 [7, 10] [µM] | IC50 [7, 11] [µM] | cytotoxic activity (LC50) in the prostate cancer subpanel (Prostate subpanel [3]; five-dose) | GI50 ([6]; Homo sapiens, read-out: mean GI50 values in all the cancer subpanels tested) [µM]
1 | N#Cc1ccc(NC(=O)C[Se]C(=O)c2ccccc2)cc1C(F)(F)F [Compound 1, Se‐(2‐((4‐cyano‐3‐(trifluoromethyl)phenyl)amino)‐2‐oxoethyl)benzoselenoate] | 1.77 | 6.4 | −94.16 | 80.4 | 1.98 | 6.79 | 1.54 | 5.91 | -95.47 | -86.92 | -95.24 | -96.53 | below 5 µM | 29.2 ± 2.65 | -94.28 |  |  |  |  | 
2 | O=C(C[Se]C(=O)c1ccco1)Nc1ccc([N+](=O)[O-])c(C(F)(F)F)c1 [Compound 5, Se‐(2‐((4‐nitro‐3‐(trifluoromethyl)phenyl)amino)‐2‐oxoethyl)furan‐2‐carboselenoate] | 2.28 |  |  | 83.3 | 2.58 | 46.5 | 1.85 | 54.4 | -27.89 | -28.95 | -17.82 | 6.59 |  | 32.9 ± 8.25 | -56.28 | 108 ± 5.53 |  |  |  | 
3 | O=C(C[Se]C(=O)c1ccccc1)Nc1cccc(OC(F)(F)F)c1 [Compound 3, Se‐(2‐oxo‐2‐((3‐(trifluoromethoxy)phenyl)amino)ethyl)benzoselenoate] | 2.45 | 18.2 | −43.99 | 82.4 | 8.52 | 43.9 | 2.16 | 12.6 | -48.28 | -45.08 | 25.15 | -36.81 |  | 6 to 10 | -50.62 | ≥ 200 | 6.59 ± 3.73 | < 10 |  | 
4 | O=C(C[Se]C(=O)c1ccco1)Nc1cccc(OC(F)(F)F)c1 [Compound 6, Se‐(2‐oxo‐2‐((3‐(trifluoromethoxy)phenyl)amino)ethyl)furan‐2‐carboselenoate] | 8.37 |  |  | 8.2 | 7.93 | 67.3 | 5.38 | 100 | -15.23 | -10.87 | 31.61 | 39.71 |  | 6 to 10 | -18.35 | 38.7 ± 6.71 | 5.99 ± 2.33 | < 10 | devoid of activity | < 10
5 | O=C(C[Se]C(=O)c1ccccc1)Nc1ccc([N+](=O)[O-])c(C(F)(F)F)c1 [Compound 2, Se‐(2‐((4‐nitro‐3‐(trifluoromethyl)phenyl)amino)‐2‐oxoethyl)benzoselenoate] | 1.57 | 5.83 | −91.96 | 50.4 | 2.11 | 7.68 | 1.44 | 5.66 | -94.40 | -83.18 | -81.88 | -94.69 | below 5 µM | 29.4 ± 2.1 | -94.64 |  |  |  |  | 
